Results on one molecule are retold here after patent US20130217712A1, “[…] FOR EGFR INHIBITOR TREATMENT” (Hoffmann-La Roche Inc., priority 2007, published 2013).

The test system of data set [1] is patients with advanced NSCLC following failure of at least one prior chemotherapy regimen. Briefly: Open-label Phase II predictive marker identification study of Tarceva monotherapy, response by RECIST and survival. It is filed as in vivo, human. The conditions noted are these: all enrolled patients n=264; oral 150 mg/day. On the procedure:
The selection of this dose was based on pharmacokinetic parameters, as well as the safety and tolerability profile of this dose observed in Phase I, II and III trials in heavily pre-treated patients with advanced cancer. Drug levels seen in the plasma of patients with cancer receiving the 150 mg/day dose were consistently above the average plasma concentration of 500 ng/ml targeted for clinical efficacy.
This was an open-label, predictive marker identification Phase II study. The study was conducted in approximately 26 sites in about 12 countries. 264 patients with advanced NSCLC following failure of at least one prior chemotherapy regimen were enrolled over a 12 month period. […] Dose reductions were permitted based on tolerability to drug therapy. Clinical and laboratory parameters were assessed to evaluate disease control and toxicity. Treatment continued until disease progression, unacceptable toxicity or death. The study design is depicted in FIG. 1.
The RECIST (Uni-dimensional Tumor Measurement) criteria were used to evaluate response. […]
A regular status check every 3 months was performed either by a patient's visit to the clinic or by telephone. All deaths were recorded. […]

For data set [2] the following is noted: patients with cancer, 150 mg/day dose; 500 ng/ml is the average concentration targeted for clinical efficacy; cited from earlier work.

Where only a bound is given, the exact number is not on record here.

Regarding `C#Cc1cccc(Nc2ncnc3cc(OCCOC)c(OCCOC)cc23)c1` [Erlotinib, erlotinib], in data set [1], the Median overall survival was 7.6 (CI 7-9) months and the median progression-free survival was 11.3 (CI 8-12) weeks. Moreover, the “drug level in plasma” value in data set [2] is > 500 ng/mL.
